How the values were obtained:
[1] = system: normal NK cells expanded with K562-aAPC; assay: percent inhibition of viability; higher = more inhibition; conditions: 72 h, IL-2 2.5 ng/mL
Procedure: (§1)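 Drug sensitivity and resistance testing on K562-aAPC-expanded normal NK cells: 5 concentrations (10-fold steps over a 10,000-fold range), 72 h at 37 °C, viability by CellTiter-Glo normalised to DMSO and benzethonium chloride controls; DSS from the fitted curve.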

DERL-7 (IL-2 2.5 ng/mL) [2] = assay: as above; conditions: 72 h
IMC-1 (IL-2 20 ng/mL) [3] = assay: as above; conditions: 72 h
KAI3 (IL-2 2.5 ng/mL) [4] = assay: as above; conditions: 72 h
KHYG-1 (IL-2 2.5 ng/mL) [5] = assay: as above; conditions: 72 h
NK-92 (IL-2 2.5 ng/mL) [6] = assay: as above; conditions: 72 h
NK-YS (IL-2 2.5 ng/mL) [7] = assay: as above; conditions: 72 h
NKL (IL-2 2.5 ng/mL) [8] = assay: as above; conditions: 72 h
SNK-6 (IL-2 2.5 ng/mL) [9] = assay: as above; conditions: 72 h
YT (IL-2 2.5 ng/mL) [10] = assay: as above; conditions: 72 h
[11] = system: normal primary NK cells, pool 1 (3 donors) (IL-2 2.5 ng/mL); assay: as above; conditions: 72 h
[12] = system: normal primary NK cells, pool 1 (3 donors), resting (IL-2 0 ng/mL); assay: as above; conditions: 72 h
[13] = system: normal primary NK cells, pool 2 (3 donors) (IL-2 2.5 ng/mL); assay: as above; conditions: 72 h
[14] = system: normal primary NK cells, pool 3 (3 donors) (IL-2 2.5 ng/mL); assay: as above; conditions: 72 h
[15] = system: normal NK cells expanded with K562-aAPC; assay: drug sensitivity score (DSS) (DSS units); higher = more sensitive; extreme values may be limits of the assay; conditions: 72 h; IL-2 2.5 ng/mL
Procedure: as §1

DERL-7 (IL-2 2.5 ng/mL) [16] = assay: as above; conditions: 72 h
IMC-1 (IL-2 20 ng/mL) [17] = assay: as above; conditions: 72 h
KAI3 (IL-2 2.5 ng/mL) [18] = assay: as above; conditions: 72 h
KHYG-1 (IL-2 2.5 ng/mL) [19] = assay: as above; conditions: 72 h
NK-92 (IL-2 2.5 ng/mL) [20] = assay: as above; conditions: 72 h
NK-YS (IL-2 2.5 ng/mL) [21] = assay: as above; conditions: 72 h
NKL (IL-2 2.5 ng/mL) [22] = assay: as above; conditions: 72 h
SNK-6 (IL-2 2.5 ng/mL) [23] = assay: as above; conditions: 72 h
YT (IL-2 2.5 ng/mL) [24] = assay: as above; conditions: 72 h
[25] = system: normal primary NK cells, pool 1 (3 donors) (IL-2 2.5 ng/mL); assay: as above; conditions: 72 h
[26] = system: normal primary NK cells, pool 1 (3 donors), resting (IL-2 0 ng/mL); assay: as above; conditions: 72 h
[27] = system: normal primary NK cells, pool 2 (3 donors) (IL-2 2.5 ng/mL); assay: as above; conditions: 72 h
[28] = system: normal primary NK cells, pool 3 (3 donors) (IL-2 2.5 ng/mL); assay: as above; conditions: 72 h

O=C(O)CC[C@H]1CC[C@@](c2cc(F)ccc2F)(S(=O)(=O)c2ccc(Cl)cc2)CC1 [MK-0752] (max concentration tested 1000 nM)
percent inhibition of viability [%]
Conditions	0.1 nM	1 nM	10 nM	100 nM	1000 nM
DERL-7 (IL-2 2.5 ng/mL) [2]	-0.82	-1.19	-2.01	-1.84	0.38
IMC-1 (IL-2 20 ng/mL) [3]	-1.19	-1.62	3.7	1.88	9.87
KAI3 (IL-2 2.5 ng/mL) [4]	-5.58	-3.61	-11.2	-10.3	10.8
KHYG-1 (IL-2 2.5 ng/mL) [5]	2.68	-1.92	2.12	-1.77	2.96
NK-92 (IL-2 2.5 ng/mL) [6]	-10.8	-16	2.19	-18.6	9.52
NK-YS (IL-2 2.5 ng/mL) [7]	1.77	3.33	4.23	-0.52	12.9
NKL (IL-2 2.5 ng/mL) [8]	-5.92	-6.47	1.23	0.27	-0.85
SNK-6 (IL-2 2.5 ng/mL) [9]	-1.33	10	0.79	21.6	11.5
YT (IL-2 2.5 ng/mL) [10]	-5.65	-0.71	-6.38	-14.1	8.32
[1]	-3.97	0.91	0.33	10.8	16.2
[11]	1.14	-1.74	-0.83	-10.7	3.87
[12]	-1.4	-17	-8.36	-13.1	-7.22
[13]	-9.74	-4.15	-0.03	-3.82	-3.17
[14]	-11.6	-7.52	0.99	-5.48	3.93

Conditions	drug sensitivity score
DERL-7 (IL-2 2.5 ng/mL) [16]	0
IMC-1 (IL-2 20 ng/mL) [17]	0
KAI3 (IL-2 2.5 ng/mL) [18]	0
KHYG-1 (IL-2 2.5 ng/mL) [19]	0
NK-92 (IL-2 2.5 ng/mL) [20]	0
NK-YS (IL-2 2.5 ng/mL) [21]	0.08
NKL (IL-2 2.5 ng/mL) [22]	0
SNK-6 (IL-2 2.5 ng/mL) [23]	1.21
YT (IL-2 2.5 ng/mL) [24]	0
[15]	1.1
[25]	0
[26]	0
[27]	0
[28]	0

NC1(c2ccc(-c3nc4ccn5c(=O)[nH]nc5c4cc3-c3ccccc3)cc2)CCC1 [MK-2206] (max concentration tested 1000 nM)
percent inhibition of viability [%]
Conditions	0.1 nM	1 nM	10 nM	100 nM	1000 nM
DERL-7 (IL-2 2.5 ng/mL) [2]	-1.61	2.78	9.98	34.8	76
IMC-1 (IL-2 20 ng/mL) [3]	-4.35	-1.09	-0.11	-1.78	9.7
KAI3 (IL-2 2.5 ng/mL) [4]	0.47	-1.02	11.1	11.8	17.4
KHYG-1 (IL-2 2.5 ng/mL) [5]	-0.27	8.2	6.87	6.05	14.9
NK-92 (IL-2 2.5 ng/mL) [6]	-0.6	-11	14.7	21.1	42.8
NK-YS (IL-2 2.5 ng/mL) [7]	2	1.38	5.87	2.52	14.5
NKL (IL-2 2.5 ng/mL) [8]	-12.3	-6.86	-5.82	11.8	4.37
SNK-6 (IL-2 2.5 ng/mL) [9]	-2.51	-8.62	3.89	0.46	24.3
YT (IL-2 2.5 ng/mL) [10]	-0.31	-0.89	5.71	2.26	10.1
[1]	-2.31	2.49	7.6	28.5	45.6
[11]	-0.91	-7.29	2.37	6.7	21.3
[12]	11.9	-0.15	13.2	11.8	43
[13]	-7.56	2.73	8.98	12.9	34.8
[14]	-11.3	-6.35	-0.77	8.45	19.7

Conditions	drug sensitivity score
DERL-7 (IL-2 2.5 ng/mL) [16]	8.28
IMC-1 (IL-2 20 ng/mL) [17]	0
KAI3 (IL-2 2.5 ng/mL) [18]	1.8
KHYG-1 (IL-2 2.5 ng/mL) [19]	0.23
NK-92 (IL-2 2.5 ng/mL) [20]	4.95
NK-YS (IL-2 2.5 ng/mL) [21]	0.39
NKL (IL-2 2.5 ng/mL) [22]	0
SNK-6 (IL-2 2.5 ng/mL) [23]	0.95
YT (IL-2 2.5 ng/mL) [24]	0
[15]	5.95
[25]	1.31
[26]	3.29
[27]	2.88
[28]	1.47

Source: the supplement of paper PMC5908809
